Patent EP0346759A2, “Cholestadiene derivatives, process for their preparation, and their use as medicines with a HMG-CoA reductase-inhibiting activity” (HOECHST AKTIENGESELLSCHAFT, priority 1988, dated 1989)

System: Cholesterin-Biosynthese
Assay: Inhibition of cholesterol biosynthesis in cell culture by 14C-precursor (14C sodium acetate) incorporation into cholesterol
Assay type: cell-based
Details: HEP-G2-Zellen, 1 % DMSO
Excerpt: Prüfung auf Cholesterin-Biosynthese-Hemmung In Zellkulturen durch ^14C-Präkursoreinbau In Cholesterin.
Monolayers von HEP G2-Zellen in lipoproteinfreiem Nährmedium wurden mit entsprechenden Konzentrationen der Prüfsubstanzen 1 Stunde vorinkubiert; nach Zugabe des ^14C-markierten Präkursors '^4C-Natriumacetat wurde die Inkubation für 3 Stunden fortgesetzt. Danach wurde ein Teil der Zellen bei vorheriger Zugabe eines internen Standards von ^3H-Cholesterin alkalisch verseift. Die Lipide der verseiften Zellen wurden mit Chloroform-Methanol extrahiert. Dieses Lipidgemisch wurde nach Zusatz von Träger-Cholesterin präparativ dünnschichtchromatographisch getrennt, die Cholesterin-Bande nach dem Sichtbarmachen mit Jod-Dämpfen isoliert und die aus dem ^14C-Präkursor gebildete Menge ^14C-Cholesterins szintigraphisch bestimmt. In einem aliquoten Teil der Zellen wurde Zellprotein bestimmt, sodaß die in der Zeiteinheit/mg Zellprotein aus ^14C-Präkursor gebildete Menge ^14C-Cholesterins berechnet werden kann. Zum Vergleich für die Hemmwirkung eines zugesetzten Prüfpräparates diente die Lösungsmittelkontrolle, sodaß direkt die Hemmung der Cholesterin-Biosynthese bei einer bestimmten molaren Konzentration des Prüfpräparates im Medium angegeben werden kann. In aliquoten Anteilen der Zellkultur wurde die Intaktheit der Zellkulturen und die fehlende Zellschädigung durch Präparate-Einwirkung morphologisch (Lichtmikroskop) beurteilt.
Cholesterol-Biosynthese-Hemmung Zellkultur: HEP-G2-Zellen Lösungsmittel-Endkonzentration: 1 % DMSO

Substance: 3ß-Hydroxy-chola-5,23t-dien-24-carbonsäure-methylester [Beispiel 9]
- IC50 (Cholesterol-Biosynthese-Hemmung): ~0.5 µM
- Acetateinbau in Cholesterin im Vergleich zur Kontrolle (Präparat-Konzentration 1,0 x 10^-6 Mol/1, 1 µM): 52%
- Acetateinbau in Cholesterin im Vergleich zur Kontrolle (Präparat-Konzentration 1,0 x 10^-7 Mol/1, 0.1 µM): 56%
- Acetateinbau in Cholesterin im Vergleich zur Kontrolle (Präparat-Konzentration 2,5 x 10^-4 Mol/1, 250 µM): 6%
- Acetateinbau in Cholesterin im Vergleich zur Kontrolle (Präparat-Konzentration 2,5 x 10^-5 Mol/1, 25 µM): 17%
